Data taken from ChEMBL document CHEMBL1201862, “PubChem BioAssay data set” (2004).
The source made the active and inactive calls.

Columns and labels:
Cytochrome P450 2D6 [1] = target: T1, Cytochrome P450 2D6 (Homo sapiens, UniProt P10635);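 further: CYP2D6 member of a cytochrome P450 panel assay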
Cytochrome P450 2C9 = Cytochrome P450 2C9 (Homo sapiens, UniProt P11712)
Cytochrome P450 1A2 = target: T2, Cytochrome P450 1A2 (Homo sapiens, UniProt P05177);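 further: PubChem cytochrome P450 panel assay, CYP1A2 panel member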
T2 sequence (P05177 whole entry): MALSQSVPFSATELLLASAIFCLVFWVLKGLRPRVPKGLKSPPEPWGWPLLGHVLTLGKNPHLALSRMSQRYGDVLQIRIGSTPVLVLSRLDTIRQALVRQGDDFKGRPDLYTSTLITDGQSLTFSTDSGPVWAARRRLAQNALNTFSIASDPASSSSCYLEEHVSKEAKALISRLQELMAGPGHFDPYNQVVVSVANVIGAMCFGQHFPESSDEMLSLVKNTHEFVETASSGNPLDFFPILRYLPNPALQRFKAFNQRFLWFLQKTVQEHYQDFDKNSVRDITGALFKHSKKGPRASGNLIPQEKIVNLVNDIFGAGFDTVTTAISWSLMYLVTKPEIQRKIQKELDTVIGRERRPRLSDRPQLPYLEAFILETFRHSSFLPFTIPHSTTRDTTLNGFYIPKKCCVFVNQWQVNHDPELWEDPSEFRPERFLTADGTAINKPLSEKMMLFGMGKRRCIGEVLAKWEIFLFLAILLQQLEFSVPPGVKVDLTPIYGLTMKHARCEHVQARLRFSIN

A-375 [2] = assay: MITF: Counter assay: A375 proliferation Measured in Cell-Based System Using Plate Reader - 2084-03_Inhibitor_Dose_DryPowder_Activity. [Related pubchem assays (depositor defined):AID488944]; format: functional; conditions: Homo sapiens
A-375 [3] = assay: proliferation inhibition in MITF-low A375 cells – cell-based, cherry-pick samples, set 2, counter-screen for MITF modulator project, dose response (AID 540335); format: functional; conditions: Homo sapiens
Cytochrome P450 2D6 [4] = target: T1, Cytochrome P450 2D6; remark: listed apart in the source
Cytochrome P450 3A4 = Cytochrome P450 3A4 (Homo sapiens, UniProt P08684);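 further: CYP3A4 tested as one member of a cytochrome P450 panel screen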
Cytochrome P450 3A4, sequence (P08684 whole entry): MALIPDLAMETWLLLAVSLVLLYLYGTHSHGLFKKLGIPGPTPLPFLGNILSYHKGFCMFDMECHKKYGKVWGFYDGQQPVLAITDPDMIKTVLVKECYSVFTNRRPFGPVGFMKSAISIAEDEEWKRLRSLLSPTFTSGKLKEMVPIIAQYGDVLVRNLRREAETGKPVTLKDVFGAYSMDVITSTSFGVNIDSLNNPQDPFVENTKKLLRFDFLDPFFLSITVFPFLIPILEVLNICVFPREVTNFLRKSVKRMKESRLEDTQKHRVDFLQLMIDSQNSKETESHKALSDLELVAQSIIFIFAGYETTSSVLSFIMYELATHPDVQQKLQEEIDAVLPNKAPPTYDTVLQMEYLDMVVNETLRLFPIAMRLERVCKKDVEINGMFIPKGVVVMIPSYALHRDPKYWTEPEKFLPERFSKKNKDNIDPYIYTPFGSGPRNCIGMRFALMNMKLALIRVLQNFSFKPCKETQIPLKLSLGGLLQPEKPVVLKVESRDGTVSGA

H4 = assay: Luminescence Cell-Based Dose Response HTS to Identify Activators of 5'UTR Stem-Loop Driven Prion Protein mRNA Translation in H4 Neuroglioblastoma Cells. [Related pubchem assays: 1829 (Project Summary), 1814 (Primary HTS)]; format: functional; conditions: Homo sapiens
[5] = Luminescence Cell-Based Dose Confirmation to Identify Activators of 5'UTR Stem-Loop Driven Alpha-Synuclein mRNA Translation in H4 Neuroglioblastoma Cells. [Related pubchem assays: 1829 (Project Summary), 1814 (Primary HTS)]; format: functional
[6] = Luminescence Cell-Based Dose Response to Identify Activators of 5'UTR Stem-Loop Driven Prion Protein mRNA Translation in H4-C Neuroglioblastoma Cells. [Related pubchem assays: 1829 (Project Summary), 1814 (Primary HTS)]; format: functional
HeLa = assay: ATP-based viability loss in HeLa cells – cell-based, CellTiter-Glo luminescence, cherry-pick samples, cytotoxicity control for MITF activator project, dose response (AID 540259); format: functional; conditions: Homo sapiens
[7] = Luminescence Cell-Based Dose Response to Identify Activators of Luciferase Translation or Activity in H4-C Neuroglioblastoma Cells. [Related pubchem assays: 1829 (Project Summary), 1814 (Primary HTS)]; format: functional
[8] = Luminescence Cell-Based Dose Response HTS to Identify Activators of Luciferase Translation or Activity in H4 […] Cells. [Related pubchem assays: 1829 (Project Summary), 1814 (Primary HTS)]; format: functional
[9] = viability of uninfected HEp-2 cells – cell-based, HTS, cytotoxicity control for RSV inhibitor project, dose response (AID 2410); format: functional; conditions: human respiratory syncytial virus
Cytochrome P450 2C19 = Cytochrome P450 2C19 (Homo sapiens, UniProt P33261); assay: Cytochrome panel assay with activity outcomes. Panel member name: p450-cyp2c19 Compounds with AC50 equal or less than 10 uM are considered active; format: functional; conditions: read-out: AC50
Cytochrome P450 2C19, sequence (P33261 whole entry): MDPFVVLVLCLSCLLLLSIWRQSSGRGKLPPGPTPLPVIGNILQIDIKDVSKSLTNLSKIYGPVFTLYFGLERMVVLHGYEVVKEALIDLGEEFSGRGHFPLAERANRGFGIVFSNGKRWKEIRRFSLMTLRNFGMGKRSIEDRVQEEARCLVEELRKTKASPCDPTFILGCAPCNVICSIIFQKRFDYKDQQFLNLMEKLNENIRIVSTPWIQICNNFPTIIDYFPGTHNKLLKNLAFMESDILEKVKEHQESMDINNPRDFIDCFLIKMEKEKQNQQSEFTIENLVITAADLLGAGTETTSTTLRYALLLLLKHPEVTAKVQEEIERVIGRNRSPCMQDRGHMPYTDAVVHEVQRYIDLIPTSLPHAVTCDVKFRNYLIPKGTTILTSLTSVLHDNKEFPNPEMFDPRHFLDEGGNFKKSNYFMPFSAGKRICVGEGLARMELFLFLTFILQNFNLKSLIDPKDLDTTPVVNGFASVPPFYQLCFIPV

Cannabinoid receptor 2 [10] = target: T3, Cannabinoid receptor 2 (Homo sapiens, UniProt P34972); assay: SAR analysis of agonists of the Cannabinoid Receptor 2 using an Image-Based Assay - Set 3. [Related pubchem assays (depositor defined):AID2013, AID2026]; format: functional
T3 sequence (P34972 whole entry): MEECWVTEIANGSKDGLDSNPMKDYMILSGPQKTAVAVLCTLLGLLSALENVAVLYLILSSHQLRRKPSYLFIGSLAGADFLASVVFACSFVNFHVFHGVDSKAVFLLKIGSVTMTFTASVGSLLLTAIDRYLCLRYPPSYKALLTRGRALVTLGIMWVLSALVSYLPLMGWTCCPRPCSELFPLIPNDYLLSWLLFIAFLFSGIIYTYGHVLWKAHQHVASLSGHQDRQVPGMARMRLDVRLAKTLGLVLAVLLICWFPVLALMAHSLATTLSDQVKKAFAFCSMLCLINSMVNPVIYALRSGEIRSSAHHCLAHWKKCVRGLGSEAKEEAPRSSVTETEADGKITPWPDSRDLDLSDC

Cannabinoid receptor 1 [11] = target: T4, Cannabinoid receptor 1 (Homo sapiens, UniProt P21554); assay: SAR analysis of agonists of the Cannabinoid Receptor 1 using an Image-Based Assay - Set 4. [Related pubchem assays (depositor defined):AID2013, AID2026]; format: functional
T4 sequence (P21554 whole entry): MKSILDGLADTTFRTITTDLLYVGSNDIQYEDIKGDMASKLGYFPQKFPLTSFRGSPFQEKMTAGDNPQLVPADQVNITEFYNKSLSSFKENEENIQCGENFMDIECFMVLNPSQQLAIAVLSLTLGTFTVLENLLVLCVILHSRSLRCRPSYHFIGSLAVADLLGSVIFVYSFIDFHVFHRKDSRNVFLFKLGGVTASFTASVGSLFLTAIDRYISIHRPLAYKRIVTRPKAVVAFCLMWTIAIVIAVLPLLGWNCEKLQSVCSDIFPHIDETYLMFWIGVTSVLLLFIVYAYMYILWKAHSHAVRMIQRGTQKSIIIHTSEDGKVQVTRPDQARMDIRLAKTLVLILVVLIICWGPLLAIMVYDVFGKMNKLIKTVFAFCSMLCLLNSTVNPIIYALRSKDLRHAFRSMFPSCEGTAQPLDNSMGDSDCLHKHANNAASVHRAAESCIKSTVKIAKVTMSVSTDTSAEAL

Cannabinoid receptor 2 [12] = target: T3, Cannabinoid receptor 2; assay: SAR analysis of antagonists of the Cannabinoid Receptor 2 using an Image-Based Assay - Set 3. [Related pubchem assays (depositor defined):AID2013, AID2026]; format: functional
[13] = target: T5, G-protein coupled receptor 35 (Homo sapiens, UniProt Q9HC97); assay: SAR analysis of Antagonists of the GPR35 Receptor using an Image-Based Assay - Set 6. [Related pubchem assays (depositor defined):AID2013, AID2026]; format: functional
T5 sequence (Q9HC97 whole entry): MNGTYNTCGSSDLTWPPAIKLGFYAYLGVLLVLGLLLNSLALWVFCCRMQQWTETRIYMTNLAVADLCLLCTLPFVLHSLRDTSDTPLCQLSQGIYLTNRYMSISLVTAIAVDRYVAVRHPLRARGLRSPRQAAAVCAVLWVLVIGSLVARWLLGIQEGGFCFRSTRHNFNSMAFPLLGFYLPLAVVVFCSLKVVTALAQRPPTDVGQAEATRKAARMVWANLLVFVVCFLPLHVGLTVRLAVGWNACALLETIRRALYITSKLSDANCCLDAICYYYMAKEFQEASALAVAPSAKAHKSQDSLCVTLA

Cannabinoid receptor 1 [14] = target: T4, Cannabinoid receptor 1; assay: SAR analysis of antagonists of the Cannabinoid Receptor 1 using an Image-Based Assay - Set 4. [Related pubchem assays (depositor defined):AID2013, AID2026]; format: functional
[15] = target: G-protein coupled receptor 55 (Homo sapiens, UniProt Q9Y2T6); assay: SAR Analysis of Selective Antagonists of GPR55 using an Image-Based Assay - Set 4. [Related pubchem assays (depositor defined):AID2013, AID2026]; format: functional;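 further: antagonism of response to 5 µM lysophosphatidylinositol agonist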
G-protein coupled receptor 55, sequence (Q9Y2T6 whole entry): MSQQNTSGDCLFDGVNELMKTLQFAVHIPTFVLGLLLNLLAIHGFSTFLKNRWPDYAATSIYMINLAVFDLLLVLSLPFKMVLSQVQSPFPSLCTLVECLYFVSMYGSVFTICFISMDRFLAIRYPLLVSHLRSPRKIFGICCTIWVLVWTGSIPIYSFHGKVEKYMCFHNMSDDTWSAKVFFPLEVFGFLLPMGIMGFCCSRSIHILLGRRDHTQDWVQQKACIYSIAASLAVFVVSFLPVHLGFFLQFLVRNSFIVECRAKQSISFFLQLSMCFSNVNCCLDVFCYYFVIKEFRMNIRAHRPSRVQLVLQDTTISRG

[16] = target: T5, G-protein coupled receptor 35; assay: SAR analysis of Agonists of the GPR35 Receptor using an Image-Based Assay - Set 4. [Related pubchem assays (depositor defined):AID2013, AID2026]; format: functional
[17] = alpha-synuclein stem-loop luciferase translation blockers – H4 neuroglioma cells, luminescence, confirmation (AID 1988); format: functional, cell-based
Vero [18] = assay: cells; format: functional, cell-based; conditions: Chlorocebus sabaeus
Vero [19] = assay: cells; format: functional; conditions: Chlorocebus sabaeus
[20] = luciferase reporter signal suppression in cells – H4 neuroglioma cells, luminescence, dose response (AID 1990); format: functional, cell-based
[21] = Luminescence Cell-Based Dose Response HTS to Identify Inhibitors of 5'UTR Stem-Loop Driven Prion Protein mRNA Translation in H4 Neuroglioblastoma Cells. [Related pubchem assays: 1827 (Project Summary), 1813 (Primary HTS)]; format: functional
[22] = CellTiter-Glo luminescence survival assay, SW480 colon tumor line, concentration-response curve, half-maximal inhibitory concentration (AID 1117338); format: functional
[23] = rise of 2N DNA cells, HeLa – IC50, dose response (AID 1117349); format: functional, cell-based
[24] = HCT116 cell viability decrease, GSK3B pretreatment – CellTiter-Glo, IC50, dose response (AID 1117339); format: functional; conditions: HCT-116
[25] = RKO cell viability reduction, dose response, CellTiter-Glo luminescence (AID 1117322); format: functional
[26] = rise of 4N DNA cells, HeLa – IC50, dose response (AID 1117351); format: functional, cell-based
[27] = SNU-C1 cell viability reduction, dose response, CellTiter-Glo luminescence (AID 1117323); format: functional, cell-based
[28] = Reduced DLD-1 viability, concentration-response, CellTiter-Glo luminescence (AID 1117352); format: functional
[29] = cytotoxicity toward HT-29 cells – cell-based, CellTiter-Glo luminescence, IC50, dose response (AID 1117330); format: functional
[30] = cytotoxicity toward HCT116 cells – cell-based, CellTiter-Glo luminescence, IC50, dose response (AID 1117332); format: functional; conditions: HCT-116
[31] = target: T6, RNA-binding protein pos-1 (Caenorhabditis elegans, UniProt G5EF15); assay: disruptors of C. elegans POS-1 RNA interaction – biochemical, fluorescence polarization, dose response (AID 1964);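 further: purified POS-1 fused to maltose binding protein made in E. coli; potency of compounds blocking POS-1 binding to fluorescent RNA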
T6 sequence (G5EF15 whole entry): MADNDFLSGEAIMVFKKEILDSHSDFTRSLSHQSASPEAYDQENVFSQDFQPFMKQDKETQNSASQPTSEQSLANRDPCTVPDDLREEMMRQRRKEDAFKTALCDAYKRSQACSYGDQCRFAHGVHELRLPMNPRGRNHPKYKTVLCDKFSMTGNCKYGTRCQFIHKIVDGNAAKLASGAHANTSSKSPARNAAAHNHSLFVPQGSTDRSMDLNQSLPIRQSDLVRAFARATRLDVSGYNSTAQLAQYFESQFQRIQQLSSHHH

[32] = target: T7, Zinc finger protein mex-5 (Caenorhabditis elegans, UniProt Q9XUB2); assay: potency of MEX-5 RNA-binding blockers – biochemical, C. elegans, fluorescence polarization, dose response (AID 1960)
T7 sequence (Q9XUB2 whole entry): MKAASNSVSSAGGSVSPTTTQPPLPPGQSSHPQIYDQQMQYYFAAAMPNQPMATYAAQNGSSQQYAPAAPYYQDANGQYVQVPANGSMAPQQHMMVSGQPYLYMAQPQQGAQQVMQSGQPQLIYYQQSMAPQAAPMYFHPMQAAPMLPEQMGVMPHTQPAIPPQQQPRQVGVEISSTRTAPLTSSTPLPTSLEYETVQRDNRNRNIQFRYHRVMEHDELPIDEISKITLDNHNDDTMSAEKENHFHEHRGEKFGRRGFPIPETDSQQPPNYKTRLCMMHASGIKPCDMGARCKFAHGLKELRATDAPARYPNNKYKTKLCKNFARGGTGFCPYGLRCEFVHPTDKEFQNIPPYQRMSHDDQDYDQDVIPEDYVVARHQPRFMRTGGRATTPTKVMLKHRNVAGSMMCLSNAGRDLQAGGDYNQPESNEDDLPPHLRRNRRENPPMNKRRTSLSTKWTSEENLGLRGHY

Keap1/Nrf2 = Keap1/Nrf2 (Homo sapiens, UniProt Q14145); assay: disruptors of Keap1 binding to Nrf2 peptide – biochemical, fluorescence polarization, cherry-picked samples, dose response (AID 588683)
Keap1/Nrf2, sequence (Q16236 whole entry): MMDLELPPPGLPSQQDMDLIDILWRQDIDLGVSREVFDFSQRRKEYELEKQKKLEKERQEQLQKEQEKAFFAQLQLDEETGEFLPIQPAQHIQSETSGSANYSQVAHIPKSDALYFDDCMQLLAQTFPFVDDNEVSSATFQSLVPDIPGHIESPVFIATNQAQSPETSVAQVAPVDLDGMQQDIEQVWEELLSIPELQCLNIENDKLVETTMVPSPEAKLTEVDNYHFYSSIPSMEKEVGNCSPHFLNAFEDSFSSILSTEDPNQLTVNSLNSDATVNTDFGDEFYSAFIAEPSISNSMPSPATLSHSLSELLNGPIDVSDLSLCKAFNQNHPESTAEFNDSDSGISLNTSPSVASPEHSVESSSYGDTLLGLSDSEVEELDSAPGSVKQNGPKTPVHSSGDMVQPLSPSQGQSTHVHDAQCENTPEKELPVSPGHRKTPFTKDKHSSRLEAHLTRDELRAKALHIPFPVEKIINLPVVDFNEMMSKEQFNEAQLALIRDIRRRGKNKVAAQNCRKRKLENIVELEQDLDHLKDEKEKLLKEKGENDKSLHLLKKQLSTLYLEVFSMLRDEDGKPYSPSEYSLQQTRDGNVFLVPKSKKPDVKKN
Keap1/Nrf2, sequence (Q14145 whole entry): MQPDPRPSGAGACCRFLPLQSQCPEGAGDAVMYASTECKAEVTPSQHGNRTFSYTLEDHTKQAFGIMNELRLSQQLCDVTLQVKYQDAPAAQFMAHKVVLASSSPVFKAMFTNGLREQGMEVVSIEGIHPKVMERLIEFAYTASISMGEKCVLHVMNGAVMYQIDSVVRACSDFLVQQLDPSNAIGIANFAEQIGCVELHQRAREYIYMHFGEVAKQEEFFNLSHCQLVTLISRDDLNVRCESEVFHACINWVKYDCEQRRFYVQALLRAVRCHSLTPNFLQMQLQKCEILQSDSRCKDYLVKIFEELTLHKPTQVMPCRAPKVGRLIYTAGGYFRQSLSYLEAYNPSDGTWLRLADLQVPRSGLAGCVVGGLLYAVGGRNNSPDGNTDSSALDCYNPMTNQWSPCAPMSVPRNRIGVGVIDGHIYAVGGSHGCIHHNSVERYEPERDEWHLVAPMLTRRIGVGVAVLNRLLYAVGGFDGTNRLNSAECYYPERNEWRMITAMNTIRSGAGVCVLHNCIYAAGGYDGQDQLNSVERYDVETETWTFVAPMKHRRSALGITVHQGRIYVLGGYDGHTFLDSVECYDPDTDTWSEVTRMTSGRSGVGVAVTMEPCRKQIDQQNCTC

T1 sequence (P10635 whole entry): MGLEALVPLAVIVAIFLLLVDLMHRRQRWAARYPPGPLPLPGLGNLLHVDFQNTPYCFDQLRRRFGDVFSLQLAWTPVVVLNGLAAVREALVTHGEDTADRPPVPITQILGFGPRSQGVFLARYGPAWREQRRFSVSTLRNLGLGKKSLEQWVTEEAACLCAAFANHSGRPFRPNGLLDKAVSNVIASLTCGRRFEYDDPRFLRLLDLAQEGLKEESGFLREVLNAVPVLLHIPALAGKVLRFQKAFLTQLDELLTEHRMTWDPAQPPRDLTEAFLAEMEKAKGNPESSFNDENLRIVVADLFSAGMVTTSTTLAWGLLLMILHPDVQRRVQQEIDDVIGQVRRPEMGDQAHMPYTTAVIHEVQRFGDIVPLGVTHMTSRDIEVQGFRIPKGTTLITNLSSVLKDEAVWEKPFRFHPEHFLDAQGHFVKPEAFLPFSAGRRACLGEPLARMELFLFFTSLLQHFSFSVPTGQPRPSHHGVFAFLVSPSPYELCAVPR
Cytochrome P450 2C9, sequence (P11712 whole entry): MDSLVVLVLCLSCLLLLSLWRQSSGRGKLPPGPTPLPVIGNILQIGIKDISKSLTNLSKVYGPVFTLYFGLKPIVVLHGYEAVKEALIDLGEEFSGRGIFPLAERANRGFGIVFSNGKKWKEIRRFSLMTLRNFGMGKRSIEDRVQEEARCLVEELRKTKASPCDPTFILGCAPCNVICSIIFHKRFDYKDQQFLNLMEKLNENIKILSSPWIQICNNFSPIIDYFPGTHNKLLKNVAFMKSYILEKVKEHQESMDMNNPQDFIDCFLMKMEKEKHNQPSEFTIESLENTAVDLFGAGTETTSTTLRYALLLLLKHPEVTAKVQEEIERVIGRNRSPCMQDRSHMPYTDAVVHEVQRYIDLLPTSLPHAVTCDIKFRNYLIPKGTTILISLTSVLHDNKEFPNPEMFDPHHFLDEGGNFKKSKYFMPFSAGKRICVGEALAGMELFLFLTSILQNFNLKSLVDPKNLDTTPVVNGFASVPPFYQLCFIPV

## CC(C)OC(=O)/C(=C\C=C\c1ccccc1)NC(=O)c1ccccc1
Cytochrome P450 2D6 [1]
  AC50: inconclusive
Cytochrome P450 2C9
  AC50: 2.82 µM (inconclusive)
Cytochrome P450 1A2
  AC50: 3.55 µM (inconclusive)

## CCOC(=O)c1ccc(NC(=O)CC2SCCNC2=O)cc1 (stereo not drawn)
A-375 [2]
  AC50: > 35 µM (active)
A-375 [3]
  AC50: > 35 µM (active)

## CCOC(=O)C1C(=O)C=C(/C=C/c2ccccc2)CC1c1ccc(Cl)cc1 (stereo not drawn)
Cytochrome P450 2D6 [4]
  AC50: 7.08 µM (inconclusive)
Cytochrome P450 3A4
  AC50: inconclusive
Cytochrome P450 2C9
  AC50: 1.41 µM (inconclusive)

## Cc1ccc(NC(=O)Nc2ccc3oc(C)nc3c2)cc1
H4
  EC50: > 120 µM (not active)
[5]
  EC50: 0.216 µM (active)
[6]
  EC50: 0.192 µM (active)
HeLa
  AC50: 104 µM (active)
[7]
  EC50: 0.346 µM (active)
[8]
  EC50: < 0.1 µM (active)

## C/C(=N\OC(=O)c1cccc(C(F)(F)F)c1)c1sc(-c2ccccc2)nc1C
HeLa
  AC50: 174 µM (active)
[9]
  CC50: 30.8 µM (active)

## S=C(Nc1ccc(Cl)cc1)NC1CC2CCCC(C1)N2C1CCCC1 (stereo not drawn)
Cytochrome P450 2C19
  AC50: 22.4 µM (inconclusive)
Cytochrome P450 3A4
  AC50: inconclusive

## Cc1cccc(OCC(=O)N2CCN(c3nc(C)nc4sc5c(c34)CCCC5)CC2)c1
Cannabinoid receptor 2 [10]
  EC50: > 32 µM (inactive)
Cannabinoid receptor 1 [11]
  EC50: > 32 µM (inactive)
Cannabinoid receptor 2 [12]
  IC50: > 11 µM (inactive)
[13]
  IC50: > 32 µM (inactive)
Cannabinoid receptor 1 [14]
  IC50: 1.66 µM (active)
[15]
  IC50: > 32 µM (inactive)
[16]
  EC50: > 32 µM (inactive)

## Cc1cc(C)c(-c2csc(NC(=O)/C=C/c3cccs3)n2)c(C)c1
[17]
  EC50: 9.05 µM (active)
Vero [18]
  IC50: 23.2 µM (active)
Vero [19]
  CC50: > 25 µM (active)
[20]
  EC50: > 120 µM (not active)
[21]
  EC50: 21.5 µM (active)

## COc1ccc(-n2cc3c(-c4ccc(-c5ccccc5)cc4)nnc(C)c3n2)cc1
Cannabinoid receptor 2 [10]
  EC50: > 32 µM (inactive)
Cannabinoid receptor 1 [11]
  EC50: > 32 µM (inactive)
Cannabinoid receptor 2 [12]
  IC50: 2.09 µM (active)
[13]
  IC50: 4.74 µM (active)
Cannabinoid receptor 1 [14]
  IC50: 1.04 µM (active)
[15]
  IC50: > 32 µM (inactive)
[16]
  EC50: > 32 µM (inactive)

## COc1cccc2c1C(=O)c1c(O)c3c(c(O)c1C2=O)C[C@@](O)(C(C)=O)C[C@@H]3O[C@H]1C[C@H](N)[C@H](O)[C@H](C)O1 [DAUNORUBICIN]
Cytochrome P450 2D6 [1]
  AC50: inactive
[22]
  IC50: 1.47 µM (active)
[23]
  IC50: 0.0102 µM (active)
[24]
  IC50: 0.0554 µM (active)
[25]
  IC50: 0.118 µM (active)
[26]
  IC50: 0.0464 µM (active)
[27]
  IC50: 0.338 µM (active)
[28]
  IC50: 0.188 µM (active)
[29]
  IC50: 0.648 µM (active)
[30]
  IC50: 0.0509 µM (active)
Cytochrome P450 1A2
  AC50: 31.6 µM (inconclusive)

## C#CCn1c(S(=O)(=O)Cc2ccc(C)cc2)nc(-c2ccccc2)c1-c1ccccc1
Vero [18]
  IC50: 3.84 µM (active)
Vero [19]
  CC50: 22.6 µM (active)

## CC(C)c1nnc(N2C(=O)C(O)=C(C(=O)c3cccs3)C2c2ccccc2)s1 (stereo not drawn)
[31]
  EC50: 33.9 µM (inconclusive)
[32]
  EC50: 4.38 µM (inconclusive)
Keap1/Nrf2
  AC50: 13.4 µM (active)
